{
  "source": "patent US20140194484A1",
  "about": "“Method of Treating Cachexia and Sarcopenia” (priority 2012, published 2014)",
  "key": {"[1]": {"tested_on": "patients with cachexia related to late stage colorectal cancer (CRC) or non-small cell lung cancer (NSCLC)", "format": "in vivo, human", "experimental": "An international multicentre, randomised, double blind, placebo controlled clinical trial was conducted with three parallel treatment groups with dose escalation within each group. Male and female patients aged between 25 to 80 years of age with cachexia related to underlying progressive or recurrent late stage colorectal cancer (CRC) or non-small cell lung cancer (NSCLC) were treated for 16 weeks with either S-pindolol or placebo. All patients received standard of care chemotherapy, radiotherapy and supportive care throughout the study at the discretion of their treating physician.\nAfter provision of written informed consent, patients were assessed for eligibility at screening visits occurring from days -8 to -1. All eligible patients with written informed consent were given a set of performance tests [stair climbing power (SCP), hand grip strength (HGS), short performance battery test (SPBT) and the six minute walk test (SMWT)] and receive a 7 day course of placebo (1 tablet two times per day). Patients able to adequately complete the performance tests and with at least 80% compliance after 7 days (tablet count: at least […]) were then randomised on Day 0 to one of three treatment groups. All patients attended for visits on days 7, 14, 21, 28, (each +/−1 day), 56, 84, 112, and 140 (each +/−7 days).\nThe dose of S-pindolol or placebo was escalated by the investigator in a blinded fashion as described below under the heading “Dose Escalation”. The maximum period of drug titration was 4 weeks and the minimum period was 2 weeks. The patients were required to attend study visits at 1 week intervals after the start of the titration phase until completion of dose escalation. The aim of dose escalation for all subjects is to reach the target dose of 8 tablets per day (4 tablets bd) or the maximum tolerated dose for a particular patient within the first 4 week period. Dose titration was achieved by varying the number of tablets taken from bottle 2. This was done such that patients will be randomised to receive either placebo, 2.5 mg S-pindolol twice daily, 5 mg S-pindolol twice daily, 7.5 mg S-pindolol twice daily, or 10 mg S-pindolol twice daily according to tolerance of the study drug.\n• S-pindolol or placebo was administered over a 16 week period. The treatment regimens for the study are summarised below. • At regular monitoring visits, a study monitor checked that all code-break envelopes remained intact.\n• Product was taken orally with food as prescribed two times daily\nA SMWT was conducted on days 0, 28, 56, 84 and 112. The SMWT was conducted as described by Paul L Enright (Respiratory Care, August 2003 Vol 48 No 8)^12. A straight, level and even area at least 20 meter long and 2 meters wide was marked out at each investigational site and used for the SMWT for all subjects at each time point. Identical chairs were placed at each end of the 20 meter track.\nThe SCP test was conducted on days 0, 28, 56, 84 and 112. The SCP test was modified from that described by Bean et al (Arch Phys Med Rehabil Vol 88, May 2007) to account for the different stairway configurations at the investigational sites.\nA HGS test was conducted on days 0, 28, 56, 84 and 112. The HGS test was modified from that described by Bassey (1990; NIH, 1990). A standard handgrip dynamometer (provided by Sponsor) that can be adjusted for hand size was used at all sites. Both hands were alternately measured in triplicate, followed by a fourth attempt on the dominant hand only. After an explanation the subject squeezed the handle as forcefully as possible for a few seconds and then released. Subjects were encouraged verbally using a standard script and the best score (in kilograms) of the dominant hand recorded in the CRF.\nDEXA was performed at selected DEXA scan centres on days at day -1, 56 and 112.\nThe maximum period of drug titration was 4 weeks and the minimum period was 2 weeks. […]"}, "[2]": {"tested_on": "pre-clinical models of cancer cachexia", "assay": "pre-clinical models of cancer cachexia", "format": "in vivo"}, "[3]": {"conditions": "high dose (10 mg bd), ITT population, DEXA"}, "[4]": {"conditions": "compared with other β blockers studied"}},
  "note": "“Also recorded” adds a separate entry of the source.",
  "data": [
    {"smiles": "CC(C)NC[C@H](O)COc1cccc2[nH]ccc12", "note": "[S-pindolol]", "values": [
      {"measurement": "Six minute walk test change", "setting": "[1]; 2.5 and 10 mg bd vs placebo", "value": "trend towards dose response"},
      {"measurement": "Stair climbing power change", "setting": "[1]; 2.5 and 10 mg bd vs placebo", "value": "trend towards dose response"},
      {"measurement": "Hand Grip Strength change, efficacy compared to placebo", "setting": "[1]; high dose (10 mg bd), ITT population", "value": "statistically significant"},
      {"measurement": "Absolute weight change (primary endpoint), efficacy compared to placebo", "setting": "[1]; high dose (10 mg bd), ITT population, 16 weeks", "value": "statistically significant"},
      {"measurement": "Fat mass change, efficacy compared to placebo", "setting": "[1]; [3]", "value": "statistically significant"},
      {"measurement": "Lean mass change, efficacy compared to placebo", "setting": "[1]; [3]", "value": "statistically significant"},
      {"measurement": "survival, difference between arms (FIG. 7)", "setting": "[1]; low dose, high dose MT-102 and placebo arms", "value": "No significant differences in survival"},
      {"measurement": "benefit compared to placebo and racemic pindolol (FIG. 4)", "setting": "[2]; FIG. 4", "value": "particularly beneficial"},
      {"measurement": "effects on aspects of cancer cachexia", "setting": "[2]; [4]", "value": "significant effects on all aspects"},
      {"measurement": "impact upon survival", "setting": "[2]; [4]", "value": "greatest impact upon survival"},
      {"measurement": "efficacy compared with racemic pindolol", "setting": "[2]; dose for dose basis, treatment of cachexia", "value": "superior efficacy to the racemic parent material; also recorded: better effects than racemic pindolol"}
    ]}
  ]
}
